From publication PMC7738508, “A therapeutic combination of two small molecule toxin inhibitors provides broad preclinical efficacy against viper snakebite” (Nature Communications, 2020)
Where “and” joins values, the source holds several entries; their conditions need not be identical. Equal entries are not always repeated. Where two headings read alike, the source gives them in different places.

Columns and labels:
[1] = system: procoagulant activity of viper venoms (citrated bovine plasma); experiment: plasma clotting assay, viper venoms overall; assay type: biochemical; details: range across all venoms; lower end of dimercaprol and marimastat ranges given as < 0.15; read-out: IC50, inhibition of procoagulant venom activity
Experimental: (§1) We used a previously developed plasma clotting assay[35] to measure venom-induced coagulation. Briefly, 100 ng of each venom was incubated at 37 °C for 30 min in the presence or absence of inhibitors (150 µM to 150 nM final concentrations). The final reaction consisted of 10 µl venom ± inhibitors in PBS, 20 µl 20 mM CaCl2, and 20 µl citrated bovine plasma (VWR). The samples were pipetted in triplicate into 384-well plates, and absorbance monitored at 595 nm for 2 h at 25 °C on an Omega FLUOstar instrument. We calculated the maximum clotting velocity of each of the curves as per clot waveform analysis, by calculating the maximum of the first derivative. The means of at least three independent experimental runs for each condition were plotted at each inhibitor concentration with SEMs.

[2] = system: procoagulant activity of Bothrops asper venom (citrated bovine plasma); experiment: plasma clotting assay; assay type: biochemical; details: Bothrops asper venom 100 ng, independent repeats
Experimental: as §1

[3] = system: procoagulant activity of Echis ocellatus venom (citrated bovine plasma); experiment: plasma clotting assay; assay type: biochemical; details: Echis ocellatus venom 100 ng, independent repeats
Experimental: as §1

[4] = system: procoagulant activity of Echis carinatus venom (citrated bovine plasma); experiment: plasma clotting assay; assay type: biochemical; design: key: max of first derivative of A595 clot curve (max clotting velocity); details: Echis carinatus venom 100 ng, independent repeats
Experimental: as §1

[5] = system: pro- and anticoagulant fractions of D. russelii venom; experiment: nanofractionation with plasma coagulation assay; assay type: biochemical, Daboia russelii; details: nanofractionated D. russelii venom; inhibitor 0.0064 to 20 µM
Experimental: Fifty microlitres of venom solution (D. russelii; 1 mg/ml) was injected into a Shimadzu LC-2010 system with nanofractionation in parallel. Separation was performed on a Waters XBridge reversed-phase C18 column (250 × 4.6 mm^2 column with 3.5 μm pore-size) at 30 °C. The total flow rate of the mobile phase solution was 0.5 ml/min with eluent A (98% H2O, 2% acetonitrile [ACN], 0.1% formic acid [FA]) and eluent B (98% ACN, 2% H2O, 0.1% FA). Liquid chromatography gradients consisted of a linear increase of mobile phase B from 0 to 50% in 20 min, followed by a linear increase to 90% B in 4 min, then isocratic at 90% B for 5 min, after which the percentage of mobile phase B was decreased from 90 to 0% in 1 min, followed by 10 min at 0% B to re-equilibrate. The effluent was split in a 1:9 ratio of which the 10% fraction was sent to a Shimadzu SPD-M20A prominence diode array detector and the 90% fraction was directed to a nanofractionation collector which dispensed the fractions into transparent 384-well plates (F-bottom, rounded square well, polystyrene, without lid, clear, non-sterile; Greiner Bio One, Alphen aan den Rijn, The Netherlands) at a resolution of 6 s/well. The collector used was either a commercially available FractioMate^TM nanofractionator (SPARK-Holland & VU, Netherlands, Emmen & Amsterdam) controlled by FractioMator software v1.0 (Spark-Holland, The Netherlands, Emmen) or a modified Gilson 235P autosampler controlled by in-house written software Ariadne v1.8 (VU Amsterdam). The well plates with venom fractions were then dried overnight in a Christ Rotational Vacuum Concentrator (RVC 2 − 33 CD plus, Zalm en Kipp, Breukelen, The Netherlands) equipped with a cooling trap, and maintained at −80 °C during operation. The freeze-dried plates were then stored at −80 °C prior to bioassaying.
The final assay concentrations of the inhibitors tested in the assay were 20, 4, 0.8, 0.16, 0.032, and 0.0064 µM. The plates were then incubated for 30 min at room temperature, and during this time bovine plasma (Sterile Filtered, Biowest, Nuaille, France) was defrosted in a water bath and centrifuged for 4 min at 805 × g prior to use. […] The plate was then read immediately for absorbance kinetically for 100 min at 595 nm at 25 °C using a Varioskan Flash Multimode Reader (Thermo Fisher Scientific, Ermelo, The Netherlands). The obtained results were normalized by dividing the slope measured in each well by the median of all slope values across the plate, and the processed coagulation chromatograms were plotted to visualize very fast coagulation, medium increased coagulation and anticoagulation, as previously described.

[6] = cited from earlier work
[7] = design: method as in PMID 29735645; details: cited from earlier work

CNC(=O)[C@@H](NC(=O)[C@H](CC(C)C)[C@H](O)C(=O)NO)C(C)(C)C [marimastat]
IC50 [1]: 150 to 1920 nM | maximum clotting velocity ([2]; inhibitor 15 µM): 0.02338 and 0.02609 and 0.02203 | maximum clotting velocity ([2]; inhibitor 150 µM): 0.02696 and 0.02551 and 0.02522 | maximum clotting velocity ([3]; inhibitor 15 µM): 0.0225 and 0.02559 and 0.02899 | maximum clotting velocity ([3]; inhibitor 150 µM): 0.02088 and 0.02471 and 0.02435 | maximum clotting velocity ([4]; inhibitor 15 µM): 0.03177 and 0.03235 | maximum clotting velocity ([4]; inhibitor 150 µM): 0.03353 and 0.03265 and 0.02823 | inhibition of anticoagulant venom fractions [5]: not neutralized | inhibition of procoagulant venom fractions [5]: effectively inhibited in a dose-dependent manner | daily doses with no notable side effects ([6]; 28 days, patients with advanced pancreatic cancer): 75 mg | single doses with no notable side effects [6]: up to 800 mg | bidaily doses with no notable side effects ([6]; for 6.5 days): 200 mg | oral bioavailability ([6]; no reference given): 70% | half-life ([6]; oral): 8 to 10 h | time to peak plasma concentrations post-administration ([6]; oral): 1.5 to 3 h | oral bioavailability ([6]; vs parenteral administration of batimastat): excellent oral bioavailability | solubility compared with batimastat [7]: increased solubility
